Values joined by “and” are separate entries in the source; they are usually repeats but may differ in a detail not shown here. Identical values can stand only once. Like-named read-outs stand apart in the source and are kept apart here.
What was measured:
[1] = test system: Bcl-2, Bax, and cleaved caspases (3, 8, and 9) in A549 cells; assay: Western blotting, apoptosis markers; assay type: cell-based, human; conditions: 48 h, 1, 3 and 6 μM, western blot; for levels of Bax / levels of cleaved caspase 3 / levels of cleaved caspase 9: dose-dependent
DU-145 = assay: NCI in vitro five dose anticancer assay; assay type: cell-based, human
[2] = test system: human lung adenocarcinoma A549; assay: Trypan blue exclusion cytotoxicity assay
PC-3 = assay: NCI in vitro five dose anticancer assay; assay type: cell-based, human
SK-MEL-5 = assay: NCI in vitro five dose anticancer assay; assay type: cell-based, human
SK-MEL-28 = assay: NCI in vitro five dose anticancer assay; assay type: cell-based, human
NCI 60 cell lines = assay: NCI single dose; assay type: cell-based, human; conditions: 48 h
UACC-257 = assay: NCI in vitro five dose anticancer assay; assay type: cell-based, human
[3] = test system: p-PI3K, p-Akt, p-mTOR and p-GSK-3β in K-562 cells; assay: Western blotting, PI3K/Akt/mTOR pathway; assay type: cell-based, human; conditions: 1, 3, or 6 μM, western blot, dose-dependent
LOX IMVI = assay: NCI in vitro five dose anticancer assay; assay type: cell-based, human
HT29 = assay: NCI in vitro five dose anticancer assay; assay type: cell-based, human
SK-MEL-2 = assay: NCI in vitro five dose anticancer assay; assay type: cell-based, human
T-47D = assay: NCI in vitro five dose anticancer assay; assay type: cell-based, human
K-562 = assay: NCI in vitro five dose anticancer assay; assay type: cell-based, human
A549/ATCC = assay: NCI in vitro five dose anticancer assay; assay type: cell-based, human
[4] = test system: p-PI3K, p-Akt, p-mTOR and p-GSK-3β in A549 cells; assay: Western blotting, PI3K/Akt/mTOR pathway; assay type: cell-based, human; conditions: 1, 3, or 6 μM, western blot, dose-dependent
SF-295 = assay: NCI in vitro five dose anticancer assay; assay type: cell-based, human
MCF7 = assay: NCI in vitro five dose anticancer assay; assay type: cell-based, human
SF-268 = assay: NCI in vitro five dose anticancer assay; assay type: cell-based, human
CCRF-CEM = assay: NCI in vitro five dose anticancer assay; assay type: cell-based, human
MALME-3M = assay: NCI in vitro five dose anticancer assay; assay type: cell-based, human
class I PI3K enzymes = assay: PI3K biochemical assay, all isoforms stated jointly; conditions: read-out: IC50s against the different PI3K isoforms; range over PI3K-α, β, γ, δ
786–0 = assay: NCI in vitro five dose anticancer assay; assay type: cell-based, human
HCT-15 = assay: NCI in vitro five dose anticancer assay; assay type: cell-based, human
NCI-H522 = assay: NCI in vitro five dose anticancer assay; assay type: cell-based, human
SNB-19 = assay: NCI in vitro five dose anticancer assay; assay type: cell-based, human
HCT-116 = assay: NCI in vitro five dose anticancer assay; assay type: cell-based, human
A549 and K-562 cells = assay: Cytotoxicity IC50 stated jointly for the 2 cell lines; assay type: cell-based, human; conditions: read-out: IC50 against the 2 cell lines tested
[5] = test system: p53, p21, cyclin B1 and Cdc2 in A549 cells; assay: Western blotting, p53 and cell cycle regulators; assay type: cell-based, human; conditions: 1, 3 and 6 μM, western blot; for expression of Cdc2 / expression of cyclin B1 / expression of p21: dose dependent
MDA-MB231/ATCC = assay: NCI in vitro five dose anticancer assay; assay type: cell-based, human
NCI-H460 = assay: NCI in vitro five dose anticancer assay; assay type: cell-based, human
HCC-2998 = assay: NCI in vitro five dose anticancer assay; assay type: cell-based, human
[6] = Prostate cancer, five dose assay
[7] = read-out: A549 (IC50 μM), trypan blue exclusion, 24 h, mean ± SD
[8] = Non-small cell lung cancer, five dose assay

In the case of `COc1ccc(-c2cc(C(=O)NN=C(/C=C\c3ccc(Cl)cc3)c3ccc(N)cc3)c3ccccc3n2)cc1` [Compound 9i, N’-((Z)-1-(4-Aminophenyl)-3-(4-chlorophenyl)allylidene)-2-(4-methoxphenyl)quinoline-4-carbohydrazide], the “levels of Bcl-2” value [1] is reported as “decreased”, the “levels of cleaved caspase 8” value [1] is reported as “not altered” and the “levels of Bax” value [1] is reported as “increased”. For the same molecule, the “levels of cleaved caspase 3” value [1] was “increased”, the “levels of cleaved caspase 9” value [1] was “increased” and the GI50 (DU-145; [6]) was 3.16 µM. The IC50 [2, 7] was 4 µM and 3.9 µM and 3.91 µM, the GI50 (PC-3; [6]) was 2.03 µM and the GI50 (SK-MEL-5; Melanoma, five dose assay) was 0.701 µM. It also gave a GI50 (SK-MEL-28; Melanoma, five dose assay) of 3.78 µM, a mean growth inhibition (NCI 60 cell lines; 10 μM single dose, mean over NCI 60 cell lines) of 73.03% and a GI50 (UACC-257; Melanoma, five dose assay) greater than 100 µM. The “levels of phosphorylated Akt (at Ser473)” value [3] was “decreases”, the “levels of phosphorylated GSK-3β” value [3] was “decreases” and the “levels of phosphorylated PI3K (at Tyr458)” value (“levels … (at Tyr458)” for short) [3] was “decreases”. The “levels of phosphorylated mTOR (at Ser2448)” value (“levels of phosphorylated mTOR” for short) [3] was “decreases”, the GI50 (LOX IMVI; Melanoma, five dose assay) was 1.56 µM and the GI50 (HT29; Colon cancer, HT29, five dose assay) was 1.13 µM. The GI50 (SK-MEL-2; Melanoma, five dose assay) was 2.03 µM, the GI50 (T-47D; Breast cancer, T-47D, five dose assay) was 2.7 µM and the GI50 (K-562; Leukemia, K-562, five dose assay) was 1.05 µM. The GI50 (A549/ATCC; Non-small cell lung cancer, A549/ATCC, five dose assay) was 2.33 µM, the “levels of phosphorylated Akt (at Ser473)” value [4] was “decreases” and the “levels of phosphorylated GSK-3β” value [4] was “decreases”. For the same molecule, the “levels … (at Tyr458)” value [4] was “decreases”, the “levels of phosphorylated mTOR” value [4] was “decreases” and the GI50 (SF-295; CNS cancer, five dose assay) was 0.54 µM. The GI50 (MCF7; Breast cancer, five dose assay) was 0.442 µM, the GI50 (SF-268; CNS cancer, five dose assay) was 2.19 µM and the GI50 (CCRF-CEM; Leukemia, five dose assay) was 5.84 µM. The GI50 (MALME-3M; Melanoma, MALME-3M, five dose assay) was greater than 100 µM, the IC50 (class I PI3K enzymes) was 0.052 to 0.473 µM and the GI50 (786–0; Renal cancer, 786–0, five dose assay) was 1.84 µM. It also gave a GI50 (HCT-15; Colon cancer, five dose assay) of 1.03 µM, a GI50 (NCI-H522; [8]) of 0.307 µM and a GI50 (SNB-19; CNS cancer, five dose assay) of 5.54 µM. For the same molecule, the GI50 (HCT-116; Colon cancer, five dose assay) was 1.41 µM, the IC50 (A549 and K-562 cells; range over A549 and K-562) was 1.91 to 5.29 µM and the “expression of wild type p53” value [5] was “upregulated”. For the same molecule, the “expression of Cdc2” value [5] was “attenuated”, the “expression of cyclin B1” value [5] was “attenuated” and the “expression of p21” value [5] was “significantly induced”. For the same molecule, the GI50 (MDA-MB231/ATCC; Breast cancer, MDA-MB231/ATCC, five dose assay) was 3.28 µM, the GI50 (NCI-H460; [8]) was 1.89 µM and the GI50 (HCC-2998; Colon cancer, HCC-2998, five dose assay) was 3.4 µM.
`Cc1ccc(-c2cc(C(=O)NN=C(/C=C\c3ccc(Cl)cc3)c3ccc(N)cc3)c3ccccc3n2)cc1` [Compound 9j, N’-((Z)-1-(4-Aminophenyl)-3-(4-chlorophenyl)allylidene)-2-(4-methylphenyl)quinoline-4-carbohydrazide] was tested, and the “levels of Bcl-2” value [1] was “decreased”, the “levels of cleaved caspase 8” value [1] was “not altered” and the “levels of Bax” value [1] was “increased”. The “levels of cleaved caspase 3” value [1] was “increased”, the “levels of cleaved caspase 9” value [1] was “increased” and the GI50 (DU-145; Homo sapiens) was 3.68 µM. It also gave an IC50 ([2]; Homo sapiens, A549, 24 h, read-out: A549 (IC50 μM), trypan blue exclusion, mean ± SD) of 5 µM, an IC50 [2, 7] of 5.29 ± 0.19 µM and a GI50 (PC-3; Homo sapiens) of 3.4 µM. It also gave a GI50 (SK-MEL-5; Homo sapiens) of 2.5 µM, a GI50 (SK-MEL-28; Homo sapiens) of 6.23 µM and an inhibition at 10 µM (NCI 60 cell lines; Homo sapiens, 60 cell, read-out: mean growth inhibition) of 74%. For the same molecule, the GI50 (UACC-257; Homo sapiens) was 33.7 µM, the “levels of phosphorylated Akt (at Ser473)” value [3] was “decreases” and the “levels of phosphorylated GSK-3β” value [3] was “decreases”. For the same molecule, the “levels … (at Tyr458)” value [3] was “decreases”, the “levels of phosphorylated mTOR” value [3] was “decreases” and the GI50 (LOX IMVI; Homo sapiens) was 4 µM. The GI50 (HT29; Homo sapiens, HT-29) was 3.35 µM, the GI50 (SK-MEL-2; Homo sapiens) was 3.81 µM and the GI50 (T-47D; Homo sapiens, T47D) was 2.73 µM. For the same molecule, the GI50 (K-562; Homo sapiens, K562) was 3.09 µM, the GI50 (A549/ATCC; Homo sapiens, A549) was 4.79 µM and the “levels of phosphorylated Akt (at Ser473)” value [4] was “decreases”. For the same molecule, the “levels of phosphorylated GSK-3β” value [4] was “decreases”, the “levels … (at Tyr458)” value [4] was “decreases” and the “levels of phosphorylated mTOR” value [4] was “decreases”. For the same molecule, the GI50 (SF-295; Homo sapiens) was 3.13 µM, the GI50 (MCF7; Homo sapiens) was 2.53 µM and the GI50 (SF-268; Homo sapiens) was 4.09 µM. The GI50 (CCRF-CEM; Homo sapiens) was 4.53 µM, the GI50 (MALME-3M; Homo sapiens, Malme-3M) was greater than 100 µM and the IC50 (class I PI3K enzymes) was 0.052 to 0.473 µM. The GI50 (786–0; Homo sapiens, 786-0) was 4.22 µM, the GI50 (HCT-15; Homo sapiens) was 3.33 µM and the GI50 (NCI-H522; Homo sapiens) was 0.622 µM. For the same molecule, the GI50 (SNB-19; Homo sapiens) was 6.51 µM, the GI50 (HCT-116; Homo sapiens) was 3.18 µM and the IC50 (A549 and K-562 cells; Homo sapiens) was 1.91 to 5.29 µM. The “expression of wild type p53” value [5] was “upregulated”, the “expression of Cdc2” value [5] was “attenuated” and the “expression of cyclin B1” value [5] was “attenuated”. For the same molecule, the “expression of p21” value [5] was “significantly induced”, the GI50 (MDA-MB231/ATCC; Homo sapiens, MDA-MB-231) was 3.94 µM and the GI50 (NCI-H460; Homo sapiens) was 3.51 µM. For the same molecule, the GI50 (HCC-2998; Homo sapiens, HCC 2998) was 4.28 µM.
